Here are results for three molecules from patent publication US11092608B2, “Methods of identifying modulators of CASTOR1-GATOR2 interaction and use of same to modulate mTORC1” (Whitehead Institute for Biomedical Research, priority 2015, dated 2021).

One experiment has as its target T1, CASTOR2 homodimer (Homo sapiens, UniProt A6NHX0).
T1 construct: made in house; host or cells: HEK-293T (transfected, pRK5-based cDNA plasmids; anti-FLAG immunoprecipitates)
T1 sequence (A6NHX0 1-329) 1: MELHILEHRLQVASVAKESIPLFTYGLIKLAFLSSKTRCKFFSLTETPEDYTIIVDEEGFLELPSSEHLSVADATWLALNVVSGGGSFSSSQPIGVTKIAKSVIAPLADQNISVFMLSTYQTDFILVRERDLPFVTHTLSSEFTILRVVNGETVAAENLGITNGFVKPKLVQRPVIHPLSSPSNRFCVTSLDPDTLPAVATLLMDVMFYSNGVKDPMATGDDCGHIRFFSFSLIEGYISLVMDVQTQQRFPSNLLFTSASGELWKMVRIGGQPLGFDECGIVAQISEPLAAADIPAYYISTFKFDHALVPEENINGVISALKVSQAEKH
T1 sequence (A6NHX0 1-329) 2: T1 sequence (A6NHX0 1-329) 1
In words: Arginine binding assay (equilibrium binding with [3H]-labeled arginine). The following applies: immunopurified from HEK-293T cells. The method, then: Four million HEK-293T cells were plated in a 15 cm plate four days prior to the experiment. Forty-eight hours after plating, the cells were transfected via the polyethylenimine method (Boussif et al., 1995) with the pRK5-based cDNA expression plasmids indicated in the figures in the following amounts: 15 μg FLAG-Rap2A, 400 ng CASTOR1-FLAG or CASTOR2-FLAG with 1200 ng CASTOR1-HA or 1200 ng CASTOR2-HA, 400 ng CASTOR1 1280A-FLAG with 1200 ng CASTOR1 1280A-HA. The total amount of plasmid DNA in each transfection was normalized to 15 μg with empty pRK5. Forty-eight hours after transfection cells were lysed as previously described (Wolfson et al., 2015). […]
For the binding assays, all immunoprecipitates were washed in pairs once with Triton wash buffer, three times with Triton lysis buffer supplemented with 500 mM NaCl, and three times with cytosolic buffer (0.1% Triton, 40 mM HEPES pH 7.4, 10 mM NaCl, 150 mM KCl, 2.5 mM MgCl2). […] Three 10 μl aliquots of this mix were separately quantified using a TriCarb scintillation counter (PerkinElmer).
For each sample, an immunoprecipitation was performed in parallel. […] Equal volumes of the eluent were resolved by 10% SDS-PAGE and analyzed with Coomassie Blue stain. Kd values were calculated as previously described (Wolfson et al., 2015).

Experiment [1] concerns the target T2, CASTOR1-CASTOR2 heterodimer (Homo sapiens, UniProt Q8WTX7).
T2 construct: made in house; host or cells: HEK-293T (transfected, pRK5-based cDNA plasmids; anti-FLAG immunoprecipitates)
T2 sequence (Q8WTX7 1-329): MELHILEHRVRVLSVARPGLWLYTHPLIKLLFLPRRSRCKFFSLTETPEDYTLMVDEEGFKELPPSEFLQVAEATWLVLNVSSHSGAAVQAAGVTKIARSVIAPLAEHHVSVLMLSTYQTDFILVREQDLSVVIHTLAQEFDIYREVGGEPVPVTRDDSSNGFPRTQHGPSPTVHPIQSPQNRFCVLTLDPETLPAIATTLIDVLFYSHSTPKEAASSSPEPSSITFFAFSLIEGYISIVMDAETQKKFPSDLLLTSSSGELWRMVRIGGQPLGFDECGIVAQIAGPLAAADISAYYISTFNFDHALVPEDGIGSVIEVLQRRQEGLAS
T2 sequence (A6NHX0 1-329 partner): T1 sequence (A6NHX0 1-329) 1
In words: Arginine binding assay (equilibrium / competition binding with [3H]-labeled amino acids). The method, then:
(§1) Four million HEK-293T cells were plated in a 15 cm plate four days prior to the experiment. Forty-eight hours after plating, the cells were transfected via the polyethylenimine method (Boussif et al., 1995) with the pRK5-based cDNA expression plasmids indicated in the figures in the following amounts: 15 μg FLAG-Rap2A, 400 ng CASTOR1-FLAG or CASTOR2-FLAG with 1200 ng CASTOR1-HA or 1200 ng CASTOR2-HA, 400 ng CASTOR1 1280A-FLAG with 1200 ng CASTOR1 1280A-HA. The total amount of plasmid DNA in each transfection was normalized to 15 μg with empty pRK5. Forty-eight hours after transfection cells were lysed as previously described (Wolfson et al., 2015). If multiple samples of the same type were represented in the experiment, the cell lysates were combined, mixed, and evenly distributed amongst the relevant tubes.
(§2) Anti-FLAG immunoprecipitates were prepared as previously described, with the exception that prior to incubation with lysates, the beads were blocked by rotating in 1 μg/μl bovine serum albumin (BSA) for 20 minutes at 4° C. and subsequently washed twice in lysis buffer. Thirty μl of the 50% slurry of beads in lysis buffer was added to each of the clarified cell lysates and incubated for 90 minutes.
(§3) For the binding assays, all immunoprecipitates were washed in pairs once with Triton wash buffer, three times with Triton lysis buffer supplemented with 500 mM NaCl, and three times with cytosolic buffer (0.1% Triton, 40 mM HEPES pH 7.4, 10 mM NaCl, 150 mM KCl, 2.5 mM MgCl2). All the liquid was subsequently aspirated and a 15 μl aliquot of proteins bound to the beads was incubated for one hour on ice in cytosolic buffer with the appropriate amount of [^3H]-labeled amino acids and cold amino acids. At the end of one hour, the beads were spun at 2,500 rpm for 25 seconds, aspirated, and rapidly washed three times with binding wash buffer (0.1% Triton, 40 mM HEPES pH 7.4, 150 mM NaCl). The beads were aspirated dry and resuspended in 85 μl of binding wash buffer. Three 10 μl aliquots of this mix were separately quantified using a TriCarb scintillation counter (PerkinElmer).
(§4) For each sample, an immunoprecipitation was performed in parallel. After washing four times as previously described, the beads were aspirated dry and resuspended in 50 μl FLAG elution buffer (Triton wash buffer supplemented with 300 mM NaCl and 1 mg/ml FLAG peptide), and incubated with rotation for 1 hour at 4° C. The eluent was subsequently resuspended in sample buffer. Equal volumes of the eluent were resolved by 10% SDS-PAGE and analyzed with Coomassie Blue stain. Kd values were calculated as previously described (Wolfson et al., 2015).

The target in another experiment is T3, CASTOR1 homodimer (Homo sapiens, UniProt Q8WTX7).
T3 construct: made in house; host or cells: HEK-293T (transfected, pRK5-based cDNA plasmids; anti-FLAG immunoprecipitates)
T3 sequence (Q8WTX7 1-329) 1: T2 sequence (Q8WTX7 1-329)
T3 sequence (Q8WTX7 1-329) 2: T2 sequence (Q8WTX7 1-329)
Described as above. The following applies: for binding of radiolabeled amino acid to CASTOR1 homodimer: immunopurified from HEK-293T cells, competed by excess nonradiolabelled arginine. The method, then: as §1, §2, §3, §4

Experiment [2] deals with T4, interaction of GATOR2 with CASTOR1-CASTOR2 heterodimer (Homo sapiens, UniProt Q8WTX7).
T4 construct: made in house; host or cells: HEK-293T co-transfected with the CASTOR cDNAs; GATOR2 is the cells' endogenous complex, co-immunoprecipitated on anti-HA beads
T4 sequence (Q8WTX7 1-329): T2 sequence (Q8WTX7 1-329)
T4 sequence (A6NHX0 1-329 partner): T1 sequence (A6NHX0 1-329) 1
The experiment in a line: In vitro CASTOR-GATOR2 dissociation assay. The class given is biochemical. The method, then:
(§5) HEK-293T cells co-transfected with 40 ng CASTOR1-HA and either 80 ng CASTOR1-FLAG (CASTOR1 homodimer) or 80 ng CASTOR2-FLAG (CASTOR1-CASTOR2 heterodimer) were starved for all amino acids for 50 minutes, lysed and subjected to anti-HA immunoprecipitation as described previously. The CASTOR-GATOR2 complexes immobilized on agarose beads were washed once in Triton wash buffer, three times in Triton wash buffer supplemented with 500 mM NaCl, and then incubated for 20 minutes in 1 mL of ice-cold Triton wash buffer supplemented with 500 mM NaCl and the indicated concentrations of individual amino acids. The amount of GATOR2 that remained bound to CASTOR complexes was assayed by SDS-PAGE and immunoblotting as previously described.

The target of experiment [3] is T5, interaction of GATOR2 with CASTOR1 homodimer (Homo sapiens, UniProt Q8WTX7).
T5 construct: made in house; host or cells: HEK-293T co-transfected with the CASTOR cDNAs; GATOR2 is the cells' endogenous complex, co-immunoprecipitated on anti-HA beads
T5 sequence (Q8WTX7 1-329) 1: T2 sequence (Q8WTX7 1-329)
T5 sequence (Q8WTX7 1-329) 2: T2 sequence (Q8WTX7 1-329)
The experiment in a line: In vitro CASTOR-GATOR2 dissociation assay. The class given is biochemical. The method, then: as §5

Setting [4] is: competition binding with increasing cold arginine, FLAG immunoprecipitates from HEK-293T cells.
[5] abbreviates: 400 μM arginine added to purified complexes.

Where “and” joins values, the source holds several entries; their conditions need not be identical. Identical values can stand only once.

As to `N=C(N)NCCC[C@H](N)C(=O)O` [arginine], the “binding of tritiated arginine to CASTOR2 homodimer” value on CASTOR2 homodimer is “not”. Besides, the “arginine binding to CASTOR1-CASTOR2 heterodimer purified from E. coli” value in experiment [1] (bacterially produced protein) was “bound arginine to a comparable degree as the complexes prepared from human cells”. Also, the Kd in experiment [1] (setting [4]) is ~30 µM and 24.2 µM; at CASTOR1 homodimer (setting [4]) it was ~30 µM and 34.8 µM. Also, in experiment [1] (immunopurified from HEK-293T cells), the “amount of arginine bound by CASTOR1-CASTOR2 heterodimer relative to CASTOR1 homodimer” value is “roughly half as much arginine as the CASTOR1 homodimer”. Also, the “arginine binding to CASTOR1 homodimer purified from E. coli” value on CASTOR1 homodimer (bacterially produced protein) is “bound arginine to a comparable degree as the complexes prepared from human cells”. For the same molecule, the “binding of radiolabeled amino acid to CASTOR1 homodimer” value on CASTOR1 homodimer is listed as “bound”. In addition, the “dissociation of GATOR2 from CASTOR1-CASTOR2 heterodimer” value in experiment [2] (setting [5]) is “sufficient to dissociate GATOR2”. In addition, the EC50 in experiment [2] (purified complexes from amino acid starved HEK-293T cells, CASTOR1-CASTOR2 heterodimer, read-out: arginine concentration for half-maximal disruption of GATOR2 interaction) was 20 to 40 µM; in experiment [3] (purified complexes from amino acid starved HEK-293T cells, CASTOR1 homodimer, read-out: arginine concentration for half-maximal disruption of GATOR2 interaction) it was 20 to 40 µM. Further, the “dissociation of GATOR2 from CASTOR1 homodimer” value in experiment [3] (setting [5]) is given as “sufficient to dissociate GATOR2”.
With `CC(C)C[C@H](N)C(=O)O` [leucine], the “binding of radiolabeled amino acid to CASTOR1 homodimer” value on CASTOR1 homodimer is on record as “neither radiolabeled leucine nor lysine bound”.
Still for that read-out and setting: the value for `NCCCC[C@H](N)C(=O)O` [lysine] was “neither radiolabeled leucine nor lysine bound”.

By Kd is commonly meant a measure of binding affinity in units of concentration.
